# Laboratory results reported in article PMC12304293, “Combatting virulent gut bacteria by inhibiting the biosynthesis of a two-component lanthipeptide toxin” (Nature Communications, 2025).
# “And” between values parts separate entries of the source, which are not always exact repeats. Equal values may be shown once. Non-standard residues stand in square brackets, D forms with d. Residues, ends and D or L forms follow the SMILES beside them. *: point of attachment. boroGlu = O=C(O)CC[C@H](N*)B(O)O; Gly(cPr) = N[C@H](C(=O)O)C1CC1
# Test system: cylLL, cylLS, and cylA transcripts in C+ E. faecalis ATCC 29212
# Assay: RT-qPCR of cylLL, cylLS and cylA transcripts
# Format: cell-based, Enterococcus faecalis
# Method: Since the cytolysin BGC is often expressed in two transcripts because of the presence of a weak intergenic terminator between cylLL and cylM, primers and amplicons were selected for cylLL, cylLS and cylA[67].
# The amounts of cylLL, cylLS, and cylA transcripts relative to the amount of 16S rRNA were determined by RT-qPCR. Amplicons and primers used to quantify cylLL, cylLS and 16S rRNA were identical to those previously reported. All primers are listed in Supplementary Table 3. Overnight cultures of E. faecalis ATCC 29212 were prepared as described in ‘Detection of CylLS” from extracts of E. faecalis’. Upon inoculation, samples were treated with 100 μM of 9 or vehicle. The samples were incubated at 37 °C for 20 h, then cells were collected by centrifugation (5000 g for 10 min). The supernatant was removed and the cells pellets were re-suspended in Lysis buffer (10 mM TrisHCl, 3 mg/mL lysozyme, pH = 7.8) at a concentration of 160 μL of Lysis buffer for 1 mL of overnight culture. The cells were incubated in Lysis buffer at room temperature for 15 min then RNA was extracted using a Monarch® Total RNA Miniprep Kit. Isolated RNA was immediately converted to cDNA using an iScript™ cDNA Synthesis Kit. cDNA was amplified using a SsoAdvanced Universal SYBR Green Supermix and a StepOnePlus Real-Time PCR System (Applied Biosystems). The expression level of each gene in each sample was determined by taking the difference between the CT of the amplification curve for the gene of interest (cylLL, cylLS or cylA) and the CT of the amplification curve for 16S rRNA, yielding ΔCT. ΔΔCT was determined by taking the difference between the ΔCT of the inhibitor treated sample and the ΔCT of the inhibitor-free control for each gene. Fold change in gene expression was calculature using Eq. (2)[76]. Four biological replicates were performed.2 Foldchangeingeneexpression=2^ΔΔCT
# [1] = 100 μM of 9, untreated control = 1.0
smiles,measurement,setting,value
CC(=O)NCC(=O)N[C@@H](CC(=O)O)C(=O)N[C@H](C(=O)N[C@@H](CCC(N)=O)C(=O)N[C@@H](C)C(=O)N[C@@H](CCC(=O)O)B(O)O)C1CC1 [Compound 9] (Ac-GD[Gly(cPr)]QA-boroGlu),"Fold Change, gene CylA (Figure 8D), replicates",[1],0.01989 and 0.0236 and 0.00144 and 0.00137
same,"Fold Change, gene CylLL (Figure 8D), replicates",[1],0.00585 and 0.2177 and 0.1852
same,"Fold Change, gene CylLS (Figure 8D), replicates",[1],0.2335 and 0.2124 and 0.00397 and 0.00605
same,reduction in cylA transcripts,"100 μM, vs untreated control",86 fold
same,reduction in cylLL transcripts,"100 μM, vs untreated control",9-10 fold
same,reduction in cylLS transcripts,"100 μM, vs untreated control",9-10 fold
